Test results: patent publication US20200404909A1, “Fatty acid derivatives for use as herbicides” (Clariant International Ltd., priority 2018, published 2020)

How the values were obtained:
[1] = Volatility from spray deposit on non-permeable leaf cuticles; type: physicochemical; conditions: pelargonic acid 30 g/L, Vorox 130 g/L
Method: (§1) The volatility of the test substances from the spray deposit was measured time dependent. All measurements have been carried out using a concentration of 50 g/L of the test substances in the application solution. The reference pelargonic acid was used at a concentration of 30 g/L and the commercial benchmark Vorox was applied at a concentration of 130 g/L. The […] drop volumes of 10 μl of the spray liquids which amounts to 500 μg of test substance were then applied on two different substrates. An inert wettable synthetic substrates and non-permeable leaf cuticles were used as substrates. […] After evaporation of drop water, the substrates were weighed to obtain the initial weight and placed under a sealed box with defined air suction output volume of 30 m^3/h. The volatility has been determined after the desired measurement time of 4 h, 24 h and 48 h by weighing of the substrates to obtain the remaining weight of the test substances. The fraction of remaining test substance in % is obtained by the ratio of remaining test substance compared to the initial weight of test substance. The volatilized amount was calculated by subtraction of the remaining test substance of the initial applied amount. The volatilized fraction of test substance in % is obtained by the ratio of volatilized test substance compared to the initial weight of test substance. A substrate without test substance is used as reference to account for changes in environmental conditions such as humidity. Concentrations used are based on ca. 3% pelargonic acid equivalent

[2] = test system: monocotyledonous and dicotyledonous harmful plants (ABUTH, ALOMY, AMARE, DIGSA, ERICA, LOLPE, SOLNI, VIOAR); test: Greenhouse trials, post emergence herbicidal activity (percent control); type: in vivo; conditions: 5-20% w/v of applied substances, spray volume 500-1000 liters per hectare, broadcast foliar method
Excerpt: Standard post emergence herbicide application procedures were used, as described below, to apply inventive compounds and formulations listed in the tables 1 and 2, as well as the reference materials.
Seed of monocotyledonous and dicotyledonous harmful plants such as Abutilon theophrasti (ABUTH), Alopecurus myosuroides (ALOMY), Amaranthus retroflexus (AMARE), Digitaria Sanguinalis (DIGSA), Erigeron canadensis (ERICA), Lolium perenne (LOLPE), Solanun nigrum (SOLNI), Viola arvensis (VIOAR) were sowed in 18 cm^2 pots. The plants were placed in a greenhouse under controlled environmental conditions, and sub-irrigation. About one week after emergence, seedlings were thinned as needed, including removal of any unhealthy or abnormal plants, to create a uniform series of test pots.
The plants were maintained for the duration of the test in the greenhouse, where they received a mean of 70 μmol m^−2 s^−1 of light per day/night. Temperatures averages about 24° C. during the day and about 20° C. during the night. Plants were sub-irrigated throughout the test to ensure adequate soil moisture levels.
Pots were assigned to different treatment in a randomized experimental design. A set of pots was left untreated as a reference against which effects of the treatments could later be evaluated. Applications of tested formulations were made in a spray cabin model SPK B CT02 designed by CheckTec using the following parameters: • nozzle Lechler LU-120-08, 1000 L/ha, 3 bars, 0.56 m/s • nozzle Lechler LU-120-06, 500 L/ha, 3 bars, 0.7 m/s.
The distance of the nozzle from the plants was between 50 to 53 cms.
After treatment, pots were returned to the greenhouse until ready for evaluation (6 hours after treatment (6HAT), 1 day after treatment (1DAT), and 2 days after treatment (2DAT).
For evaluation of herbicidal effectiveness, all plants in the test were examined by a single technician, who recorded percent control, a visual measurement of the effectiveness of each treatment by comparison with untreated plants. […] The reported % control values represent the average for all replicates of each treatment.

[3] = Volatility from spray deposit on inert wettable synthetic substrates; type: physicochemical; conditions: pelargonic acid 30 g/L, Vorox 130 g/L
Method: as §1

[4] = Spray liquids in water: appearance and stability after 24 h; type: physicochemical; conditions: for Appearance: spray liquid in water, after 24 h
Method: The inventive compounds were used to make spray liquids at relevant use concentration. These spray liquids are produced by mixing the various test substances in water, and the appearance and stability of the spray liquid were assessed after 24 h.
The inventive compounds can be used as 100% substances without need for additional additives or formulation aids to obtain stable spray liquids. They are either water soluble and form clear homogeneous spray liquid or self-emulsifying in the spray liquid and form cloudy homogeneous emulsions that are stable over 24 h. […] Stable spray liquids can only be achieved with pelargonic acid when they are formulated with appropriate emulsifiers and other formulation aids like in the commercial benchmark Vorox.

[5] = test system: Fruit trees (apple trees); test: Plant growth regulator activity: blossom thinning in orchards (greenhouse and field trial); type: in vivo; conditions: A1 diluted in water 1-10%, about 2 to about 15 liters per apple tree
Excerpt: Fruit trees were sprayed with substance A1 (Pelargonic acid 6 EO ester methyl ether), several days before the expected full blossoming in the greenhouse, and also in a field trial to test the blossom thinning, which is used to increase the fruit production.
Plots (3 trees per plot in field trials; 1 tree per plot in greenhouse) were assigned to different treatments in a randomized experimental design. One plot was left untreated as a reference against which effects of the treatments could later be evaluated.
The test substance A1 was diluted in water in a range of 1-10% and the spray solution was sprayed in an amount of about 2 to about 15 liters per apple tree (height: about 2-2.5 m, width: about 1-1.5 m). The Application was made with a high-pressure power backpack sprayer manufactured by SOLO® Kleinmotoren GmbH.
The treated trees were evaluated regarding flower thinning effect, but also regarding undesired effects by chemical injury such as leaf browning, leaf malformation, etc.

[6] = pH 4, 4 h, test substances 50 g/L
[7] = pH 4, 24 h, test substances 50 g/L
[8] = pH 4, 48 h, test substances 50 g/L

Molecule | Volatilized fraction 4 h [1, 6] | Volatilized fraction 24 h [1, 7] | Volatilized fraction 48 h [1, 8] | herbicidal activity against a plurality of the harmful plants [2] | Volatilized fraction 4 h [3, 6] | Volatilized fraction 24 h [3, 7] | Volatilized fraction 48 h [3, 8] | other results
CCCCCCCCC(=O)OCCOCCOCCOCCOCCOCCOCCOCCOC [A2, Pelargonic acid 8 EO ester methyl ether] | 1.7% | 2.1% | 2.8% | moderately effective to highly effective | −0.3% | 0.2% | 0.4% | Appearance ([4]; amount 0.3 % by wt.): Clear solution; Appearance ([4]; amount 5.0 % by wt.): Clear solution
CCCCCCCCC(=O)OCCOCCOCCOCCOCCOCCOCCOCCOC(=O)CCCCCCCC [A18, Pelargonic acid 8 EO diester, reference compound] | 0.6% | 1.7% | 4.0% |  | 0.5% | 0.7% | 0.9% | 
CCCCCCCCC(=O)OCCOCCOCCOCCOCCOCCOC [A1, Pelargonic acid 6 EO ester methyl ether] | 1.5% | 4.8% | 5.2% | moderately effective to highly effective | −0.2% | 0.6% | 1.2% | undesired effects by chemical injury (leaves, branches, tree) ([5]; evaluated after treatment): without significantly harming the tree; flower thinning effect ([5]; sprayed several days before full blossoming): excellent results as flower thinning agent; herbicidal activity against several, in particular three or more, of the mentioned harmful plants [2]: highly effective; Appearance ([4]; amount 5.0 % by wt.): Clear solution
Dodec-9-enoic acid 3 EO ester methyl ether [A12] |  |  |  | moderately effective to highly effective |  |  |  | 
Dodecanoic acid 6 EO ester methyl ether [A14] |  |  |  | moderately effective to highly effective |  |  |  | 
C=CCCCCCCCC(=O)OCCOCCOCCOCCOCCOCCOC [A11, Dec-9-enoic acid 6 EO ester methyl ether] |  |  |  | moderately effective to highly effective |  |  |  | 
C8/C10 fatty acid 6 EO ester methyl ether [A6] |  |  |  | moderately effective to highly effective |  |  |  | Appearance ([4]; amount 5.0 % by wt.): Clear solution
CCCCCCCCC(=O)OCCOCCOCCOCCCCCC [A10, Pelargonic acid 3 EO ester hexyl ether] | 6.2% | 14.7% | 18.9% | moderately effective to highly effective | 0.9% | 4.4% | 7.2% | 
C12/C14 fatty acid 5 EO ester methyl ether [A8] |  |  |  | moderately effective to highly effective |  |  |  | 
CCCCCCCCC(=O)O [Pelargonic acid, reference compound] | 55.7% | 78.9% | 80.6% | moderately effective to highly effective | 3.9% | 19.1% | 35.2% | Volatilized fraction 4 h ([1]; pH 7, 4 h): 29.2%; Volatilized fraction 24 h ([1]; pH 7, 24 h): 33.8%; Volatilized fraction 48 h ([1]; pH 7, 48 h): 35.3%; Volatilized fraction 4 h ([3]; pH 7, 4 h): 7.3%; Volatilized fraction 24 h ([3]; pH 7, 24 h): 21.3%; Volatilized fraction 48 h ([3]; pH 7, 48 h): 27.9%; stability of spray liquid ([4]; 100% substances in water without additional additives or formulation aids): phase separate immediately; Appearance ([4]; amount 0.3 % by wt.): 2 clear phases; Appearance ([4]; amount 5.0 % by wt.): 2 clear phases
CCCCCCCCC(=O)OC(C)COCCOCCOC (stereo not shown) [A4, Pelargonic acid 1 PO 2 EO ester methyl ether] |  |  |  | moderately effective to highly effective |  |  |  | herbicidal activity against several, in particular three or more, of the mentioned harmful plants [2]: highly effective
CC(CC(=O)O)CC(C)(C)C (stereo not shown) [A13, 3,5,5-trimethylhexanoic acid] |  |  |  | moderately effective to highly effective |  |  |  | 
CCCCCCCCC(=O)OCCOCCOCCOCCOC(C)COCCOCCOC (stereo not shown) [A3, Pelargonic acid 1 PO 6 EO ester methyl ether] |  |  |  | moderately effective to highly effective |  |  |  | 
CCCCCCCCC(=O)OCCOCCOCCOCCOCCOCCOC(=O)CCCCCCCC [A17, Pelargonic acid 6 EO diester, reference compound] | 0.6% | 1.5% | 0.6% |  | 0.6% | 1.0% | 1.3% | 
CCCCCCCCCCC(=O)OCCOCCOCCOCCOCCOCCOC [A15, Undecanoic acid 6 EO ester methyl ether] |  |  |  | moderately effective to highly effective |  |  |  | 
C8/C10 fatty acid 4 EO ester methyl ether [A5] |  |  |  | moderately effective to highly effective |  |  |  | 
C12/C14 fatty acid 3 EO ester methyl ether [A7] |  |  |  | moderately effective to highly effective |  |  |  | 
CCCCCCCCC(=O)OCCOCCOCCOCCOCCOCCOCC [A16, Pelargonic acid 6 EO ester ethyl ether] |  |  |  | moderately effective to highly effective |  |  |  | 
CCCCCCCCCCOCCOCCOCCOCCOCCOC(=O)CCCCCCCC [A9, Pelargonic acid 5 EO ester decyl ether] | 8.6% | 11.7% | 22.8% | moderately effective to highly effective | 0.3% | 1.2% | 1.9% | 
